# Laboratory results taken from patent US20110033393A1, “Hydrazone Compounds and Their Use” (priority 2009, published 2011).
# Tested on: isolated rat primary islets
# Experiment: Insulin release from isolated primary rat islets
# Assay type: cell-based
# Method: Isolation of Rat Islets: Islets were isolated from 226-250 g male Sprague Dawley rats from Taconic. The animals were initially anesthetized with CO2 gas and euthanized by cervical dislocation. The pancreatic duct was injected with 15 to 30 ml of Collagenase P (Roche Diagnostics catalog #1 249 002) at 0.6 mg/ml in Hanks' Balanced Salt Solution (HBSS) (Gibco Catalog #14025-076) supplemented with BSA (Sigma, catalog #A 7409) to a final concentration of 0.1%. The pancreas was excised and placed into a 20 ml scintillation vial, incubated in a water bath at 37° C. for 16 to 18 minutes and then shaken briskly for at least 60 seconds. The digested tissue was poured into a 50 ml conical tube (1 per tube) containing cold Hank's Buffer supplemented with BSA (as above) and washed 7-10 times. […]
# Measurement of Insulin Release: Insulin release measurements were carried out in Krebs-Ringer bicarbonate buffer (118.4 mmol/liter NaCl, 4.69 mmol/liter KCl, 1.2 mmol/liter MgSO4, 1.18 mmol/liter KH2PO4, 2.4 mmol/liter CaCl2, and 20 mmol/liter NaHCO3 (equilibrated with 95% O2 and 5% CO2, pH 7.4) supplemented with BSA to a final concentration of 0.1%). […] Insulin release in the supernatant was assessed using a commercially available ELISA kit (Mercodia-Cat. #10-1124-10) according to the manufacturer's protocol. The data were expressed as pg of insulin per number of cells. […]
smiles,measurement,setting,value
"Cc1cc(/C=N/NC(=O)C2CC2c2ccccc2)cc2cccnc12 (racemic) [Example 10, trans-N′-((8-Methylquinolin-6-yl)methylene)-2-phenylcyclopropanecarbohydrazide]",insulin secretion,"3 mM glucose, compound up to 10 μM",insulin secretion is not observed
same,insulin secretion,"12 mM glucose, compared to the DMSO control",significant dose-dependent increase in insulin secretion
